Tests used:
[1] = Plasma pharmacokinetics of pomalidomide and its enantiomers (chiral LC–MS/MS) after a single oral 2 mg dose of [14C]pomalidomide; type: in vivo, human
Source text: This was an open-label, in-patient, single-dose study in eight non-smoking healthy male adult volunteers conducted in accordance with Good Clinical Practices (GCP) and in compliance with the Declaration of Helsinki. The protocol and consent form were reviewed and approved by the appropriate institutional review board, and all study participants gave written informed consent, before initiation of any study-related procedure. Male subjects were eligible based on standard inclusion/exclusion criteria and were excluded if they had exposure to excess radiation or participated in a study involving radioisotopes within the previous 12 months. Subjects entered the study center on the day prior to dosing and remained at the center for up to 15 days following dosing or until the total radioactivity recovered in excreta was ≥90 % or the radioactivity recovered in excreta per day on three consecutive days was ≤1 % of the administered radioactive dose.
(§1) Each subject was administered a single oral suspension of 2 mg (100 μCi) of [^14C]pomalidomide in seltzer water (75 mL) followed by administration of an additional 140 mL of distilled water. Subjects were fasted for 8 h prior to and 4 h following dose administration. The residual radioactivity in the dosing vials was determined, and for six of the eight subjects (subjects 1–4, 6 and 8), the administered dose (1.93–2.02 mg) was close to the target dose of 2 mg. For subjects 5 and 7, a significant amount of radioactivity remained in the dose vial, resulting in administered doses of 1.59 and 1.51 mg, respectively. Calculations for percent of dose recovered in excreta were based on the actual administered doses.
(§2) Blood was collected into pre-chilled K3EDTA tubes at pre-dose, 0.5, 1, 1.5, 2, 2.5, 3, 4, 6, 8, 10, 12, 24, 48, 72, 120 and 168 h following dose administration. Blood for radioactivity counting was transferred to a clean tube and stored at or below 4 °C until analyzed. Plasma was harvested by centrifugation from the remaining blood. A plasma sample for radioactivity counting was transferred to a fresh tube. Three plasma aliquots were transferred to tubes containing citric acid for metabolite profiling and for determination of pomalidomide enantiomer concentrations in plasma. Urine was collected pre-dose, 0–6, 6-12, 12–24 and every 24 h thereafter up to 216 h (9 days) following dose administration and were stabilized with one volume of pH 1.5 Sorensen’s citrate buffer (25 mM sodium citrate buffer adjusted to pH 1.5). During the 12- to 24-h collection interval for subject 4, approximately 550 mL of urine was inadvertently poured into the wrong collection urinal and the sample was lost. […] Individual fecal samples were collected pre-dose and for up to 9 days following dose administration, and homogenized using approximately three volumes by weight of pH 1.5 Sorensen’s citrate buffer. All urine, fecal homogenates and plasma samples were stored at or below −20 °C until analyzed.
Plasma concentrations of each pomalidomide enantiomer were determined using a chiral LC–MS/MS assay. The pomalidomide enantiomers and ^13C-labeled pomalidomide (internal standard; IS) were extracted from plasma (stabilized with citric acid) using liquid–liquid extraction with methyl tertiary butyl ether. After transfer to a new tube, the solvent was evaporated, and the samples were reconstituted and injected for LC–MS/MS analysis using a Chiral AGP (50 × 3.0 mm, 5 μm; Chrom Tech, Inc., Apple Valley, MN) analytical column. Positive ions were measured in the multiple reaction monitoring (MRM) mode using a Sciex API-4000 tandem mass spectrometer equipped with a Turbo Ion Spray source. For the QC samples, the accuracy ranged from 91.0 to 106.9 %. For study samples, the amount of [^14C]-labeled material was accounted for when calculating the concentration of enantiomers in plasma using an appropriate correction factor. […]

[2] = Pharmacokinetics of total radioactivity in whole blood and plasma after a single oral 2 mg dose of [14C]pomalidomide; type: in vivo, human
Protocol: as §1, §2
All radioactivity determinations were performed using Tri-Carb model 2900TR liquid scintillation counter (PerkinElmer, Wellesley, MA). For plasma, urine and residual dose vial analysis, duplicate samples were mixed with Ultima Gold XR scintillation cocktail and directly analyzed by liquid scintillation counting. For fecal homogenate and blood samples, duplicate aliquots were weighed, allowed to dry and combusted using a PerkinElmer model 307 sample oxidizer. The resultant [^14C]CO2 was trapped in Carbosorb (PerkinElmer) in combination with Permafluor and assayed by liquid scintillation counting. For all matrices, any sample that was less than two times the background dpm was assigned a value of zero. Using these criteria, the lower limits of quantification in plasma, blood, urine and feces were 0.894 ng [^14C]pomalidomide equivalent/mL (ngEq/mL), 0.939 ngEq/g, 0.871 ngEq/mL and 2.96 ngEq/g, respectively.
Standard pharmacokinetic parameters were estimated from the pomalidomide (as the sum of the enantiomer concentrations at each time point) and enantiomer concentration versus time profiles or the blood and plasma radioactive concentration equivalents versus time profiles using established non-compartmental methods with WinNonlin (Version 5.2, Pharsight Corp., CA). Pre-dose samples that were below the limit of quantification (BLQ) or missing were assigned a numerical value of zero for the calculation of AUC. All post-dose BLQ were treated as missing in the PK analysis.
Total radioactivity in whole blood and plasma was converted to nanogram equivalent (ngEq) concentrations (ngEq/g for whole blood or ngEq/mL for plasma) based on the actual specific activity of the dose.

[3] = plasma, as [14C]pomalidomide equivalents, mean ± SD
[4] = whole blood, as [14C]pomalidomide equivalents, mean ± SD

Q: For `Nc1cccc2c1C(=O)N(C1CCC(=O)NC1=O)C2=O` (racemic) [Pomalidomide, (RS)-4-amino-2-(2,6-dioxo-piperidin-3-yl)-isoindoline-1,3-dione], which Cmax ([1]; human, healthy male subjects, mean ± SD (n = 8)) is on record?
A: 13 ± 3.9 ng/mL

Q: What about the AUC(0-inf) ([1]; male, human, mean ± SD (n = 8)) of the same molecule?
A: 189 ± 52 ng·h/mL

Q: And the AUC(0-t) ([1]; male, human, mean ± SD (n = 8))?
A: 137 ± 67 ng·h/mL

Q: And the half-life ([1]; male, human, po, 2 mg, mean ± SD (n = 8), read-out: t ½ (converted))?
A: 11.2 h

Q: And the Tmax ([1]; male, human, po, 2 mg, median (min–max))?
A: < 3.5 h

Q: And the “t ½” value ([1]; mean ± SD (n = 8))?
A: 8.9 ± 3.4 h

Q: And the T max ([1]; median (min–max))?
A: 3.0 (2.0–6.0) h

Q: What about the “AUC0−t, plasma total radioactivity” value [2, 3] of the same molecule?
A: 189 ± 88 ng·h/mL

Q: What about the “AUC0−∞, plasma total radioactivity” value [2, 3] of the same molecule?
A: 225 ± 94 ng·h/mL

Q: What about the “AUC0–24, TRA (total radioactivity)” value ([2]; plasma, geometric mean (%CV)) of the same molecule?
A: 194 (27.6) ngEq*h/mL

Q: What about the “AUC0−∞, TRA (total radioactivity)” value ([2]; plasma, geometric mean (%CV)) of the same molecule?
A: 245 (37.9) ngEq*h/mL

Q: And the “C max, TRA (total radioactivity)” value ([2]; plasma, geometric mean (%CV))?
A: 14.8 (17.8) ngEq/mL

Q: And the “t ½, TRA (total radioactivity)” value ([2]; plasma, geometric mean (%CV))?
A: 10.3 (23.5) h

Q: And the “t ½, plasma total radioactivity” value ([2]; plasma, mean ± SD, listed as [^14C]pomalidomide)?
A: 11.2 ± 2.5 h

Q: And the “T max, plasma total radioactivity” value ([2]; plasma, median (min–max), listed as [^14C]pomalidomide)?
A: 3.25 (1.0–4.0) h

Q: And the “T max, TRA (total radioactivity)” value ([2]; plasma, median and range)?
A: 2.5 (1.0–4.0) h

Q: What about the “C max, plasma total radioactivity” value ([2]; plasma, single oral 2 mg, mean ± SD) of the same molecule?
A: 12.1 ± 2.2 ng [^14C]pomalidomide equivalent/mL

Q: And the “Radioactivity blood to plasma ratio, AUC0−t” value ([2]; single oral 2 mg)?
A: 0.84

Q: And the “Radioactivity blood to plasma ratio, AUC0−∞” value ([2]; single oral 2 mg)?
A: 0.87

Q: And the “Radioactivity blood to plasma ratio, C max” value ([2]; single oral 2 mg)?
A: 0.80

Q: And the “AUC0−t, whole blood total radioactivity” value [2, 4]?
A: 225 ± 99 ng·h/mL

Q: And the “AUC0−∞, whole blood total radioactivity” value [2, 4]?
A: 260 ± 102 ng·h/mL

Q: What about the “t ½, whole blood total radioactivity” value ([2]; whole blood, mean ± SD) of the same molecule?
A: 10.2 ± 1.9 h

Q: What about the “T max, whole blood total radioactivity” value ([2]; whole blood, median (min–max)) of the same molecule?
A: 2.5 (1.0–4.0) h

Q: And the “C max, whole blood total radioactivity” value ([2]; whole blood, single oral 2 mg, mean ± SD)?
A: 15.1 ± 2.7 ng [^14C]pomalidomide equivalent/mL

From PMC3556473, “Absorption, metabolism and excretion of [^14C]pomalidomide in humans following oral administration” (Cancer Chemotherapy and Pharmacology, 2012)
